This note sets out measurements from US20120157401A1, “METHODS FOR TREATING NEUROFIBROMATOSIS” (PTC Therapeutics, Inc., priority 2009, published 2012).

SMILES strings stand for the structures.

One may read the EC50 as the concentration needed to bring the measured effect to its halfway point.

For one test, the system named is hypoxia-inducible endogenous VEGF expression. The test can be described thus: Hypoxia-inducible endogenous VEGF expression ELISA in HeLa cells, dose-response EC50 (Table 3). It counts as cell-based, human. To be noted: HeLa cells, hypoxic conditions (1% O2), 24-48 hours, VEGF in conditioned media; read-out: ELISA EC50. The protocol: The ability of the Compounds to modulate hypoxia-inducible endogenous VEGF expression may be analyzed as follows. VEGF protein levels may be monitored by an ELISA assay (R&D Systems). Briefly, HeLa cells may be cultured for 24-48 hours under hypoxic conditions (1% O2, 5% CO2, balanced with nitrogen) in the presence or absence of a Compound. The conditioned media may then be assayed by ELISA, and the concentration of VEGF calculated from the standard ELISA curve of each assay.
A dose-response analysis may be performed using the ELISA assay and conditions described above. The conditions for the dose-response ELISA are analogous to those described above. A series of, e.g., seven different concentrations may be analyzed. In parallel, a dose-response cytotoxicity assay may be performed using Cell Titer Glo (Promega) under the same conditions as the ELISA to ensure that the inhibition of VEGF expression was not due to the cytotoxicity.
A general note: In an ELISA, binding on a coated surface is turned into a signal by an enzyme label.
On to `COC(=O)c1ccc(C2c3[nH]c4ccc(Cl)cc4c3CCN2C(=O)Oc2ccc(F)cc2)cc1` (centres unmarked) [Compound 579], for which the EC50 is under 0.008 µM.

Still in this test, the particulars now being: Homo sapiens, HeLa, read-out: ELISA EC50 μM.
Regarding `CC(=O)N1CCN(CC(O)COc2ccc(C3c4[nH]c5ccc(Cl)cc5c4CCN3C(=O)Oc3ccc(F)cc3)cc2)CC1` (centres unmarked) [Compound 637], the EC50 was under 0.008 µM.
On to `O=C(Oc1ccc(F)cc1)N1CCc2c([nH]c3ccc(Cl)cc23)C1c1ccc(OCC(O)CN2CCOCC2)cc1` (centres unmarked) [Compound 638], for which the concentration giving a half-maximal response (EC50) was under 0.008 µM.
As for `O=C(Oc1ccc(Cl)cc1)N1CCc2c([nH]c3ccc(Cl)cc23)C1c1ccc(OCCCCN2CCCC2)cc1` (centres unmarked) [Compound 698], the EC50 is 0.008 to 0.04 µM.
For `O=C(Oc1ccc(Cl)cc1)N1CCc2c([nH]c3ccc(Cl)cc23)C1c1ccc(OCCCCNCCO)cc1` (centres unmarked) [Compound 699], the 50% effective concentration (EC50) was 0.008 to 0.04 µM.
On the same count and under the same terms, the figure for `CC(C)NCCCCOc1ccc(C2c3[nH]c4ccc(Cl)cc4c3CCN2C(=O)Oc2ccc(Cl)cc2)cc1` (centres unmarked) [Compound 700] is 0.008 to 0.04 µM; for `COCCCNCCCCOc1ccc(C2c3[nH]c4ccc(Cl)cc4c3CCN2C(=O)Oc2ccc(Cl)cc2)cc1` (centres unmarked) [Compound 701] it is 0.008 to 0.04 µM; for `O=C(Oc1ccc(Cl)cc1)N1CCc2c([nH]c3ccc(Cl)cc23)C1c1ccc(OCCCCN2CCOCC2)cc1` (centres unmarked) [Compound 702] it is 0.008 to 0.04 µM.
As to `O=C(Oc1ccc(Cl)cc1)N1CCc2c([nH]c3ccc(Cl)cc23)C1c1ccc(OCCCCN2CCCCC2)cc1` (centres unmarked) [Compound 703], the 50% effective concentration (EC50) lay in the range of 0.008 to 0.04 µM.
As to `CN1CCN(CCCCOc2ccc(C3c4[nH]c5ccc(Cl)cc5c4CCN3C(=O)Oc3ccc(Cl)cc3)cc2)CC1` (centres unmarked) [Compound 704], the 50% effective concentration (EC50) was in the range of 0.04 to 0.2 µM.

Still in this test, the particulars now being: Homo sapiens; HeLa cells, hypoxic conditions (1% O2), 24-48 hours, VEGF in conditioned media; read-out: ELISA EC50.
In the case of `O=C(Oc1ccc(F)cc1)Oc1ccc(C2c3[nH]c4ccc(Cl)cc4c3CCN2C(=O)Oc2ccc(F)cc2)cc1` (centres unmarked) [Compound 576], the EC50 was 0.04 to 0.2 µM.
On to `O=C(Oc1ccc(Cl)cc1)N1CCc2c([nH]c3ccc(Cl)cc23)C1c1ccc(O)cc1` (centres unmarked) [Compound 577], for which the concentration for a half-maximal effect (EC50) fell in the range of 0.04 to 0.2 µM.
`COC(=O)c1ccc(C2c3[nH]c4ccc(Cl)cc4c3CCN2C(=O)Oc2ccc(Cl)cc2)cc1` (centres unmarked) [Compound 580]: the EC50 is under 0.008 µM.
As to `O=C(O)c1ccc(C2c3[nH]c4ccc(Cl)cc4c3CCN2C(=O)Oc2ccc(F)cc2)cc1` (centres unmarked) [Compound 581], the EC50 was over 1 µM.
Regarding `COc1ccc(C2c3[nH]c4ccc(Cl)cc4c3CCN2C(=O)Oc2ccccc2Cl)cc1` (centres unmarked) [Compound 587], the concentration for a half-maximal effect (EC50) is 0.04 to 0.2 µM.
With `O=C(Oc1ccccc1Cl)N1CCc2c([nH]c3ccc(Cl)cc23)C1c1ccc(F)cc1` (centres unmarked) [Compound 588], the EC50 is 0.04 to 0.2 µM.
On to `O=C(Oc1ccccc1Cl)N1CCc2c([nH]c3ccc(Cl)cc23)C1c1ccc(Cl)cc1` (centres unmarked) [Compound 589], for which the EC50 is 0.04 to 0.2 µM.
With `COC(=O)c1ccc(C2c3[nH]c4ccc(Cl)cc4c3CCN2C(=O)Oc2ccccc2Cl)cc1` (centres unmarked) [Compound 590], the EC50 was 0.008 to 0.04 µM.
Regarding `COC(=O)c1ccc(C2c3[nH]c4ccc(Br)cc4c3CCN2C(=O)Oc2ccc(Cl)cc2)cc1` (centres unmarked) [Compound 591], the EC50 is under 0.008 µM.
On to `COC(=O)c1ccc(C2c3[nH]c4ccc(Br)cc4c3CCN2C(=O)Oc2ccc(F)cc2)cc1` (centres unmarked) [Compound 592], for which the EC50 was under 0.008 µM.
Turning to `COC(=O)c1ccc(C2c3[nH]c4ccc(Br)cc4c3CCN2C(=O)Oc2ccccc2Cl)cc1` (centres unmarked) [Compound 593], the EC50 is 0.008 to 0.04 µM.
On the same count and under the same terms, the figure for `O=C(Oc1ccccc1Cl)N1CCc2c([nH]c3ccc(Cl)cc23)C1c1ccc(C(F)(F)F)cc1` (centres unmarked) [Compound 594] is 0.04 to 0.2 µM; for `COc1ccc(C2c3[nH]c4ccc(OC)cc4c3CCN2C(=O)Oc2ccc(Cl)cc2)cc1` (centres unmarked) [Compound 614] it is 0.2 to 1 µM.
In the case of `COc1ccc(C2c3[nH]c4ccc(OCc5ccccc5)cc4c3CCN2C(=O)Oc2ccc(Cl)cc2)cc1` (centres unmarked) [Compound 616], the EC50 fell in the range of 0.2 to 1 µM.
`O=C(Oc1ccc(Cl)cc1)N1CCc2c([nH]c3ccc(Cl)cc23)C1c1ccc(OCCCI)cc1` (centres unmarked) [Compound 617]: the concentration giving a half-maximal response (EC50) lay within 0.008 to 0.04 µM.
Take `O=C(Oc1ccccc1)N1CCc2c([nH]c3ccc(Cl)cc23)C1c1ccc(OCC(O)CO)cc1` (centres unmarked) [Compound 626]: the concentration for a half-maximal effect (EC50) lay in the range of 0.008 to 0.04 µM.
As to `O=C(Oc1ccc(F)cc1)N1CCc2c([nH]c3ccc(Cl)cc23)C1c1ccc(OCC(O)CO)cc1` (centres unmarked) [Compound 627], the 50% effective concentration (EC50) was under 0.008 µM.
Regarding `O=C(Oc1ccccc1Cl)N1CCc2c([nH]c3ccc(Cl)cc23)C1c1ccc(OCC(O)CO)cc1` (centres unmarked) [Compound 628], the concentration giving a half-maximal response (EC50) is 0.04 to 0.2 µM.
As for `O=C(Oc1ccc(Cl)cc1)N1CCc2c([nH]c3ccc(Cl)cc23)C1c1ccc(OCC(O)CO)cc1` (centres unmarked) [Compound 629], the concentration giving a half-maximal response (EC50) is under 0.008 µM.
For the molecule `O=C(Oc1ccc(Br)cc1)N1CCc2c([nH]c3ccc(Cl)cc23)C1c1ccc(OCC(O)CO)cc1` (centres unmarked) [Compound 630], the EC50 was under 0.008 µM.
On to `Cc1ccc(OC(=O)N2CCc3c([nH]c4ccc(Cl)cc34)C2c2ccc(OCC(O)CO)cc2)cc1` (centres unmarked) [Compound 631], for which the half-maximal effective concentration (EC50) is under 0.008 µM.
Still for that read-out and setting: for `O=C(Oc1ccc([N+](=O)[O-])cc1)N1CCc2c([nH]c3ccc(Cl)cc23)C1c1ccc(OCC(O)CO)cc1` (centres unmarked) [Compound 632] the value was 0.008 to 0.04 µM; for `COc1ccc(OC(=O)N2CCc3c([nH]c4ccc(Cl)cc34)C2c2ccc(OCC(O)CO)cc2)cc1` (centres unmarked) [Compound 635], 0.008 to 0.04 µM.
The same measure, in the same setting: the figure for `O=C(Oc1ccc(Cl)cc1)N1CCc2c([nH]c3ccc(Cl)cc23)C1c1ccc(OCCCCCl)cc1` (centres unmarked) [Compound 660] is under 0.008 µM.
For `COCCOCCOc1ccc(C2c3[nH]c4ccc(Cl)cc4c3CCN2C(=O)Oc2ccccc2)cc1` (centres unmarked) [Compound 670], the half-maximal effective concentration (EC50) is under 0.008 µM.
For `COCCOCCOc1ccc(C2c3[nH]c4ccc(Cl)cc4c3CCN2C(=O)Oc2ccc(F)cc2)cc1` (centres unmarked) [Compound 673], the EC50 fell in the range of 0.008 to 0.04 µM.
Turning to `COCCOCCOc1ccc(C2c3[nH]c4ccc(Cl)cc4c3CCN2C(=O)Oc2ccccc2Cl)cc1` (centres unmarked) [Compound 674], the EC50 fell in the range of 0.008 to 0.04 µM.
On the same count and under the same terms, the figure for `COCCOCCOc1ccc(C2c3[nH]c4ccc(Cl)cc4c3CCN2C(=O)Oc2ccc(Cl)cc2)cc1` (centres unmarked) [Compound 675] is 0.008 to 0.04 µM.
For `COCCOCCOc1ccc(C2c3[nH]c4ccc(Cl)cc4c3CCN2C(=O)Oc2ccc(C)cc2)cc1` (centres unmarked) [Compound 677], the EC50 was 0.008 to 0.04 µM.
Turning to `COCCOCCOc1ccc(C2c3[nH]c4ccc(Cl)cc4c3CCN2C(=O)Oc2ccc(OC)cc2)cc1` (centres unmarked) [Compound 678], the concentration giving a half-maximal response (EC50) is 0.04 to 0.2 µM.
Still for that read-out and setting: the figure for `COCCOCCOc1ccc(C2c3[nH]c4ccc(Cl)cc4c3CCN2C(=O)Oc2ccc(Br)cc2)cc1` (centres unmarked) [Compound 680] is under 0.008 µM; for `COCCOCCOc1ccc(C2c3[nH]c4ccc(Cl)cc4c3CCN2C(=O)Oc2ccc([N+](=O)[O-])cc2)cc1` (centres unmarked) [Compound 681] it is 0.008 to 0.04 µM; for `O=C(Oc1ccc(Cl)cc1)N1CCc2c([nH]c3ccc(Cl)cc23)C1c1ccc(OCCCCn2ccnc2)cc1` (centres unmarked) [Compound 705] it is 0.008 to 0.04 µM.
Same read-out and setting: the figure for `O=C(Oc1ccc(Cl)cc1)N1CCc2c([nH]c3ccc(Cl)cc23)C1c1ccc(OCCCCn2cncn2)cc1` (centres unmarked) [Compound 706] is under 0.008 µM; for `O=C(Oc1ccccc1)N1CCc2c([nH]c3ccc(Cl)cc23)C1c1ccc(OCCCCl)cc1` (centres unmarked) [Compound 710] it is under 0.008 µM.
Turning to `O=C(Oc1ccc(F)cc1)N1CCc2c([nH]c3ccc(Cl)cc23)C1c1ccc(OCCCCl)cc1` (centres unmarked) [Compound 712], the concentration for a half-maximal effect (EC50) was under 0.008 µM.
Turning to `O=C(Oc1ccccc1Cl)N1CCc2c([nH]c3ccc(Cl)cc23)C1c1ccc(OCCCCl)cc1` (centres unmarked) [Compound 713], the concentration for a half-maximal effect (EC50) was 0.008 to 0.04 µM.
